Experiments:
Test in all cases: relative viability (nuclei count vs DMSO), 5 days (fraction); higher = more cells survive
[1] = compound: NC(=O)[C@@H](CCC(F)(F)F)N(Cc1ccc(-c2ncon2)cc1F)S(=O)(=O)c1ccc(Cl)cc1 [Avagacestat] + CC(C)C[C@H](NC(=O)[C@H](Cc1ccccc1)NC(=O)c1cnccn1)B(O)O [Bortezomib] (partner 0.002 µM)
In short: (§1)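 Each reported value is a median over duplicate plates. It expresses relative viability: treated-well nuclei count divided by vehicle-well nuclei count. Lung cancer cell lines in 1536-well plates were dosed by pin tool a day after seeding, alone with one drug or with a fixed anchor-drug dose plus five library-drug doses (not always all listed) in √10 steps, and nuclei were counted after 5 days.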

[2] = compound: NC(=O)[C@@H](CCC(F)(F)F)N(Cc1ccc(-c2ncon2)cc1F)S(=O)(=O)c1ccc(Cl)cc1 [Avagacestat] + CC1(C)CCC(c2ccc(Cl)cc2)=C(CN2CCN(c3ccc(C(=O)NS(=O)(=O)c4ccc(N[C@H](CCN5CCOCC5)CSc5ccccc5)c(S(=O)(=O)C(F)(F)F)c4)cc3)CC2)C1 [Navitoclax] (partner 0.5 µM)
In short: as §1

[3] = compound: NC(=O)[C@@H](CCC(F)(F)F)N(Cc1ccc(-c2ncon2)cc1F)S(=O)(=O)c1ccc(Cl)cc1 [Avagacestat] + Cc1nc(Nc2ncc(C(=O)Nc3c(C)cccc3Cl)s2)cc(N2CCN(CCO)CC2)n1 [Dasatinib] (partner 0.075 µM)
In short: as §1

[4] = compound: NC(=O)[C@@H](CCC(F)(F)F)N(Cc1ccc(-c2ncon2)cc1F)S(=O)(=O)c1ccc(Cl)cc1 [Avagacestat] + CCNC(=O)c1noc(-c2cc(C(C)C)c(O)cc2O)c1-c1ccc(CN2CCOCC2)cc1 [Luminespib] (partner 0.01 µM)
In short: as §1

Cell Line | relative viability ([1]; first compound 0.08 µM) | relative viability ([1]; first compound 0.253 µM) | relative viability ([1]; first compound 0.8 µM) | relative viability ([1]; first compound 2.53 µM) | relative viability ([1]; first compound 8 µM) | relative viability ([2]; first compound 0.08 µM) | relative viability ([2]; first compound 0.253 µM) | relative viability ([2]; first compound 0.8 µM) | relative viability ([2]; first compound 2.53 µM) | relative viability ([2]; first compound 8 µM) | relative viability ([3]; first compound 0.08 µM) | relative viability ([3]; first compound 0.253 µM) | relative viability ([3]; first compound 0.8 µM) | relative viability ([3]; first compound 2.53 µM) | relative viability ([3]; first compound 8 µM) | relative viability ([4]; first compound 0.08 µM) | relative viability ([4]; first compound 0.253 µM) | relative viability ([4]; first compound 0.8 µM) | relative viability ([4]; first compound 2.53 µM) | relative viability ([4]; first compound 8 µM)
NCI-H2085 | 1.13 | 1.21 | 1.14 | 1.13 | 0.992 | 1.21 | 1.37 | 1.13 | 1.26 | 1.08 | 0.201 | 0.202 | 0.229 | 0.222 | 0.252 | 0.438 | 0.481 | 0.729 | 0.414 | 0.472
NCI-H2087 | 0.946 | 1.05 | 0.917 | 0.918 | 0.8 | 1.34 | 1.19 | 1.02 | 1.16 | 0.931 | 0.893 | 1.18 | 0.994 | 0.916 | 0.686 | 0.161 | 0.173 | 0.276 | 0.264 | 0.143
NCI-H2126 | 1.15 | 1.1 | 1.1 | 1.18 | 1.02 | 1.02 | 0.899 | 0.875 | 0.798 | 0.832 | 0.588 | 0.587 | 0.606 | 0.467 | 0.582 | 0.893 | 0.939 | 0.978 | 0.852 | 0.891
NCI-H2228 | 1.12 | 0.952 | 1.05 | 0.886 | 0.734 | 1.25 | 1.19 | 1.08 | 0.903 | 0.956 | 0.546 | 0.426 | 0.435 | 0.408 | 0.474 | 0.221 | 0.117 | 0.179 | 0.132 | 0.108
